# Assay results published in PubChem BioAssay AID248 (DTP/NCI, 2004).
# Where “and” joins values, the source holds several entries; their conditions need not be identical. Equal entries are not always repeated. Inconclusive results and toxic doses are left out.
# System: L1210 leukemia ip in BDF1 mice, survival T/C
# Test: NCI In Vivo Anticancer Drug Screen. Data for tumor model L1210 Leukemia (intraperitoneal) in B6D2F1 (BDF1) mice
# Conditions: higher = longer survival
# Method in brief: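 In this screen, tumor-bearing mice given compound are compared to those given vehicle, and their survival values are reported as a treated-to-control quotient.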
# [1] = endpoint: mean survival time, dose: 75.0 mg/kg/injection, schedule: Q01DX Z (ip), vehicle: carboxymethylcellulose (CMC)
# [2] = endpoint: mean survival time, dose: 100.0 mg/kg/injection, schedule: Q01DX001 (ip), vehicle: saline
# [3] = endpoint: mean survival time, dose: 200.0 mg/kg/injection, schedule: Q01DX001 (ip), vehicle: saline
# [4] = endpoint: mean survival time, dose: 400.0 mg/kg/injection, schedule: Q01DX001 (ip), vehicle: saline
# [5] = endpoint: mean survival time, dose: 100.0 mg/kg/injection, schedule: Q04DX002 (ip), vehicle: saline with Tween-80
# [6] = endpoint: mean survival time, dose: 200.0 mg/kg/injection, schedule: Q04DX002 (ip), vehicle: saline with Tween-80
compound,measurement,setting,value
OCC1OC(n2cnc3c(=S)nc[nH]c32)C(O)C1O (centres undefined),T/C,"endpoint: mean survival time, dose: 4.69 mg/kg/injection, schedule: Q01DX009 (ip), vehicle: water",103 % of control
same,T/C,"endpoint: mean survival time, dose: 9.38 mg/kg/injection, schedule: Q01DX009 (ip), vehicle: water",109 % of control
same,T/C,"endpoint: mean survival time, dose: 10.0 mg/kg/injection, schedule: Q01DX009 (ip), vehicle: saline",117 % of control and 120 % of control
same,T/C,"endpoint: mean survival time, dose: 14.02 mg/kg/injection, schedule: Q01DX Z (ip), vehicle: carboxymethylcellulose (CMC)",121 % of control
same,T/C,"endpoint: mean survival time, dose: 17.88 mg/kg/injection, schedule: Q01DX Z (ip), vehicle: carboxymethylcellulose (CMC)",119 % of control
same,T/C,"endpoint: mean survival time, dose: 18.25 mg/kg/injection, schedule: Q01DX Z (ip), vehicle: carboxymethylcellulose (CMC)",122 % of control
same,T/C,"endpoint: mean survival time, dose: 18.75 mg/kg/injection, schedule: Q01DX009 (ip), vehicle: water",117 % of control
same,T/C,"endpoint: mean survival time, dose: 20.0 mg/kg/injection, schedule: Q01DX010 (ip), vehicle: saline",111 % of control
same,T/C,"endpoint: mean survival time, dose: 23.83 mg/kg/injection, schedule: Q01DX Z (ip), vehicle: carboxymethylcellulose (CMC)",115 % of control
same,T/C,"endpoint: mean survival time, dose: 35.75 mg/kg/injection, schedule: Q01DX Z (ip), vehicle: carboxymethylcellulose (CMC)",123 % of control
same,T/C,"endpoint: mean survival time, dose: 36.5 mg/kg/injection, schedule: Q01DX Z (ip), vehicle: carboxymethylcellulose (CMC)",123 % of control
same,T/C,"endpoint: mean survival time, dose: 37.5 mg/kg/injection, schedule: Q01DX009 (ip), vehicle: water",112 % of control
same,T/C,"endpoint: mean survival time, dose: 37.5 mg/kg/injection, schedule: Q01DX Z (ip), vehicle: carboxymethylcellulose (CMC)",100 % of control
same,T/C,"endpoint: mean survival time, dose: 50.0 mg/kg/injection, schedule: Q01DX009 (ip), vehicle: saline",121 % of control
same,T/C,"endpoint: mean survival time, dose: 75.0 mg/kg/injection, schedule: Q01DX015 (ip), vehicle: carboxymethylcellulose (CMC)",151 % of control
same,T/C,[1],113 % of control
same,T/C,"endpoint: mean survival time, dose: 100.0 mg/kg/injection, schedule: Q01DX005 (ip), vehicle: saline",123 % of control
same,T/C,"endpoint: mean survival time, dose: 100.0 mg/kg/injection, schedule: Q01DX009 (ip), vehicle: carboxymethylcellulose (CMC)",114 % of control
same,T/C,"endpoint: mean survival time, dose: 107.25 mg/kg/injection, schedule: Q01DX Z (ip), vehicle: carboxymethylcellulose (CMC)",152 % of control
same,T/C,"endpoint: mean survival time, dose: 120.0 mg/kg/injection, schedule: Q01DX001 (ip), vehicle: carboxymethylcellulose (CMC)",98 % of control
same,T/C,"endpoint: mean survival time, dose: 125.0 mg/kg/injection, schedule: Q03HX024 (ip), vehicle: saline",114 % of control
same,T/C,"endpoint: mean survival time, dose: 150.0 mg/kg/injection, schedule: Q## X Z (ip), vehicle: carboxymethylcellulose (CMC)",107 % of control
same,T/C,"endpoint: mean survival time, dose: 160.0 mg/kg/injection, schedule: Q01DX010 (ip), vehicle: saline",153 % of control and 155 % of control
same,T/C,"endpoint: mean survival time, dose: 180.0 mg/kg/injection, schedule: Q01DX001 (ip), vehicle: alkali diluted with saline",108 % of control
same,T/C,"endpoint: mean survival time, dose: 180.0 mg/kg/injection, schedule: Q01DX001 (ip), vehicle: carboxymethylcellulose (CMC)",118 % of control
same,T/C,"endpoint: mean survival time, dose: 188.0 mg/kg/injection, schedule: Q03HX024 (ip), vehicle: clinical formulation",104 % of control
same,T/C,"endpoint: mean survival time, dose: 188.0 mg/kg/injection, schedule: Q03HX024 (ip), vehicle: saline",115 % of control
same,T/C,"endpoint: mean survival time, dose: 200.0 mg/kg/injection, schedule: Q01DX009 (ip), vehicle: saline",163 % of control and 181 % of control
same,T/C,"endpoint: mean survival time, dose: 270.0 mg/kg/injection, schedule: Q01DX001 (ip), vehicle: alkali diluted with saline",119 % of control
same,T/C,"endpoint: mean survival time, dose: 270.0 mg/kg/injection, schedule: Q01DX001 (ip), vehicle: carboxymethylcellulose (CMC)",114 % of control
same,T/C,"endpoint: mean survival time, dose: 300.0 mg/kg/injection, schedule: Q03HX024 (ip), vehicle: saline",95 % of control and 108 % of control
same,T/C,"endpoint: mean survival time, dose: 320.0 mg/kg/injection, schedule: Q01DX009 (ip), vehicle: saline",152 % of control and 166 % of control
same,T/C,"endpoint: mean survival time, dose: 600.0 mg/kg/injection, schedule: Q01DX001 (ip), vehicle: alkali diluted with saline",120 % of control
same,T/C,"endpoint: mean survival time, dose: 600.0 mg/kg/injection, schedule: Q## X Z (ip), vehicle: carboxymethylcellulose (CMC)",93 % of control
same,T/C,"endpoint: mean survival time, dose: 800.0 mg/kg/injection, schedule: Q01DX001 (ip), vehicle: saline",103 % of control
same,T/C,"endpoint: mean survival time, dose: 800.0 mg/kg/injection, schedule: Q01DX009 (ip), vehicle: carboxymethylcellulose (CMC)",122 % of control
same,T/C,"endpoint: mean survival time, dose: 1000.0 mg/kg/injection, schedule: Q## X Z (ip), vehicle: carboxymethylcellulose (CMC)",121 % of control
same,T/C,"endpoint: mean survival time, dose: 1200.0 mg/kg/injection, schedule: Q01DX001 (ip), vehicle: saline",107 % of control
same,T/C,"endpoint: mean survival time, dose: 1600.0 mg/kg/injection, schedule: Q01DX001 (ip), vehicle: saline",114 % of control
same,T/C,"endpoint: median survival time, dose: 50.0 mg/kg/injection, schedule: Q03HX024 (ip), vehicle: other",155 % of control
same,T/C,"endpoint: median survival time, dose: 100.0 mg/kg/injection, schedule: Q03HX024 (ip), vehicle: other",155 % of control
same,T/C,"endpoint: median survival time, dose: 100.0 mg/kg/injection, schedule: Q03HX024 (sc), vehicle: other",150 % of control
same,T/C,"endpoint: median survival time, dose: 200.0 mg/kg/injection, schedule: Q03HX024 (ip), vehicle: other",155 % of control
same,T/C,"endpoint: median survival time, dose: 200.0 mg/kg/injection, schedule: Q03HX024 (sc), vehicle: other",155 % of control
same,T/C,"endpoint: median survival time, dose: 400.0 mg/kg/injection, schedule: Q03HX024 (ip), vehicle: other",111 % of control
same,T/C,"endpoint: median survival time, dose: 800.0 mg/kg/injection, schedule: Q01DX001 (ip), vehicle: other",111 % of control
same,T/C,"endpoint: median survival time, dose: 800.0 mg/kg/injection, schedule: Q01DX001 (sc), vehicle: other",111 % of control
same,T/C,"endpoint: median survival time, dose: 800.0 mg/kg/injection, schedule: Q04DX003 (ip), vehicle: other",122 % of control
same,T/C,"endpoint: median survival time, dose: 800.0 mg/kg/injection, schedule: Q04DX003 (sc), vehicle: other",122 % of control
same,T/C,"endpoint: median survival time, dose: 1600.0 mg/kg/injection, schedule: Q01DX001 (ip), vehicle: other",116 % of control
same,T/C,"endpoint: median survival time, dose: 1600.0 mg/kg/injection, schedule: Q01DX001 (sc), vehicle: other",116 % of control
same,T/C,"endpoint: median survival time, dose: 3200.0 mg/kg/injection, schedule: Q01DX009 (sc), vehicle: other",100 % of control
same,T/C,"endpoint: median survival time, dose: 3200.0 mg/kg/injection, schedule: Q04DX003 (sc), vehicle: other",150 % of control
COc1cc2ccccc2cc1C(=O)NN,T/C,"endpoint: mean survival time, dose: 75.0 mg/kg/injection, schedule: Q04DX003 (ip), vehicle: Klucel (hydroxypropylcellulose) (HPC)",94 % of control
same,T/C,"endpoint: mean survival time, dose: 150.0 mg/kg/injection, schedule: Q04DX003 (ip), vehicle: Klucel (hydroxypropylcellulose) (HPC)",102 % of control
same,T/C,"endpoint: mean survival time, dose: 300.0 mg/kg/injection, schedule: Q04DX003 (ip), vehicle: Klucel (hydroxypropylcellulose) (HPC)",97 % of control
S=c1n(CN2CCCCC2)c2cncnc2n1CN1CCCCC1,T/C,[1],98 % of control
same,T/C,"endpoint: mean survival time, dose: 100.0 mg/kg/injection, schedule: Q01DX Z (ip), vehicle: carboxymethylcellulose (CMC)",109 % of control
same,T/C,"endpoint: mean survival time, dose: 125.0 mg/kg/injection, schedule: Q01DX Z (ip), vehicle: carboxymethylcellulose (CMC)",95 % of control
CN(C)P1(=O)N(C)CCN1C,T/C,[2],100 % of control
same,T/C,[3],98 % of control
same,T/C,[4],94 % of control
Cc1nnc2c3ccccc3ccn12,T/C,"endpoint: mean survival time, dose: 50.0 mg/kg/injection, schedule: Q01DX001 (ip), vehicle: saline",101 % of control
same,T/C,[2],101 % of control
same,T/C,[3],103 % of control
O=C(CNC(=O)c1ccc(Cl)cc1)NO,T/C,"endpoint: mean survival time, dose: 100.0 mg/kg/injection, schedule: Q01DX001 (ip), vehicle: Klucel (hydroxypropylcellulose) (HPC)",96 % of control
same,T/C,"endpoint: mean survival time, dose: 200.0 mg/kg/injection, schedule: Q01DX001 (ip), vehicle: Klucel (hydroxypropylcellulose) (HPC)",102 % of control
same,T/C,"endpoint: mean survival time, dose: 400.0 mg/kg/injection, schedule: Q01DX001 (ip), vehicle: Klucel (hydroxypropylcellulose) (HPC)",96 % of control
c1csc([Si](c2cccs2)(c2cccs2)c2cccs2)c1,T/C,[5],103 % of control
same,T/C,[6],89 % of control
COc1ccc2c(c1)C1(C)CCCC(C)(C(=O)O)C1C(Br)C2=O (centres undefined),T/C,[2],104 % of control
same,T/C,[3],101 % of control
same,T/C,[4],102 % of control
CN(C)C=NC(c1ccccc1)c1ccc(Cl)cc1 (centres undefined),T/C,"endpoint: mean survival time, dose: 75.0 mg/kg/injection, schedule: Q01DX009 (ip), vehicle: saline with Tween-80",95 % of control
same,T/C,"endpoint: mean survival time, dose: 150.0 mg/kg/injection, schedule: Q01DX009 (ip), vehicle: saline with Tween-80",95 % of control
same,T/C,"endpoint: mean survival time, dose: 300.0 mg/kg/injection, schedule: Q01DX009 (ip), vehicle: saline with Tween-80",100 % of control
CC(=O)OCC1OCOC2C1OC1OCOC12 (centres undefined),T/C,[5],104 % of control
same,T/C,[6],104 % of control
same,T/C,"endpoint: mean survival time, dose: 400.0 mg/kg/injection, schedule: Q04DX002 (ip), vehicle: saline with Tween-80",118 % of control
CC1(c2ccc3ccccc3c2)OC(=O)c2ccccc21 (centres undefined),T/C,"endpoint: mean survival time, dose: 25.0 mg/kg/injection, schedule: Q01DX009 (ip), vehicle: saline with Tween-80",106 % of control
same,T/C,"endpoint: mean survival time, dose: 50.0 mg/kg/injection, schedule: Q01DX009 (ip), vehicle: saline with Tween-80",91 % of control
CC(=O)c1ccc2c(c1)Cc1cc(Br)ccc1-2,T/C,"endpoint: mean survival time, dose: 100.0 mg/kg/injection, schedule: Q01DX001 (ip), vehicle: carboxymethylcellulose (CMC)",97 % of control
same,T/C,"endpoint: mean survival time, dose: 200.0 mg/kg/injection, schedule: Q01DX001 (ip), vehicle: carboxymethylcellulose (CMC)",89 % of control
same,T/C,"endpoint: mean survival time, dose: 400.0 mg/kg/injection, schedule: Q01DX001 (ip), vehicle: carboxymethylcellulose (CMC)",97 % of control
